The text below walks through data of patent US9127291B2, “Methods and products for biasing cellular development” (University of Central Florida Research Foundation, Inc., priority 2004, dated 2015).

Entries after “also recorded” stand apart in the source; their conditions may differ.

Series [1] concerns HNSCs. The experiment in a line: Co-culture of HNSCs transfected with human Lhx8 gene with RA-treated LA-N-2 cells. In kind it is cell-based. Particulars: co-culture with RA-treated LA-N-2 cells. The protocol:
Using the same vector formation and transfection methods as in Example 2, the Human Lxh8 gene (SEQ ID NO: 6) is transfected into HNSCs. Transfected NHSC cells are cultured in a first treatment that includes LA-N-2 cells that are treated with RA and that express both Lhx8 and ChAT. A co-culture control comprises NHSCs that are not transfected but that are in the same culture vessel as LA-N-2 that are treated with RA and that express both Lhx8 and ChAT. For the first treatment and the co-culture control, HNSC cells are placed in cell culture inserts with an appropriate pore size and suspended in basal media (in the absence of FGF-2 and EGF and without the addition of other extrinsic differentiation factors) over differentiated LA-N-2 cells plated in 6-well plates.
Immunochemistry follows the same procedure as in Example 2 above.

Series [2] relates to Human Neural Stem Cells (HNSCs). As to the kind of experiment: Differentiation of Hath1-transfected HNSCs (calretinin immunocytochemistry, Western blot, electron microscopy). In kind it is cell-based. The protocol: An established a non-serum HNSC culture system was utilized to investigate the differentiation of human neural stem cells (HNSCs) within a defined condition. (Christopher L. Brannen and Kiminobu Sugaya, Regeneration and Transplantation, 11:5, 1123-1128 (2000)). The serum-free supplemented growth medium consisted of HAMS-F12 (Gibco, BRL, Burlington, ON), antibiotic/antimycotic mixture (1:100, Gibco), B27 (1:50, Gibco), human recombinant FGF-2 and EGF (20 ng/ml each, R and D Systems, Minneapolis, Minn.), and heparin (5 ug/ml, Sigma, St. Louis, Mo.). Cells were maintained in 20 ml of this medium at 37° C. in a 5% CO2 humidified incubation chamber.
The mammalian expression vector containing Hath1 gene was transfected into HNSCs by using the Neuroporter Kit (Gene Therapy Systems, Inc. San Diego, Calif.) and Hath 1 gene expression was confirmed by RT-PCR. These Hath1-transfected HNSCs were differentiated for 7 days by the depletion of mitotic factors (FGF-2, EGF) from the culture media. After the differentiation the cells were fixed for immunocytochemistry and Electron Microscopy.
The gene expression of Hath1 is assessed by RT-PCR with the following condition: 95° C. (60″), 56° C. (60″), 72° C. (60″) for 35 cycles, with an initial denaturation of 95° C. (5′) and final elongation of 72° C. (15′). The Hath1 gene is transfected into Human Neural Stem Cells (HNSCs) using the Neuroporter Kit. The Neuroporter kit utilizes a lipid-based transfection system for the use with cultured primary neurons, neuronal cell lines, and glial cells. DNA and Neuroporter are used in a ratio of 10 μg DNA/75 μl Neuroporter, utilizing 37.5 μl per well in a 6-well plate and with total volumes of 1.5 mL growth media per well. […]
Following PBST washing, the cells are incubated with secondary antibody biotinylated anti-rabbit made in goat in PBS containing 0.05% Triton-X100 (PBST), with a dilution factor of 1:200. […] The cells are washed with water, ethanol, and xylene, coverslipped with permount, and ready for viewing with microscopy. […]

Series [3] has as its system LA-N-2 cells. As to the kind of experiment: Retinoic acid treatment of LA-N-2 human neuroblastoma cells. In kind it is cell-based. The conditions noted are these: final concentration 10^−6M. The method, then: LA-N-2 cells were obtained from Dr. Jan Blusztajn (Boston University, MA). The cells were cultured in Leibovitz L-15 medium (Gibco, BRL, Burlington, ON) containing 10% fetal calf serum and antibiotic-antimyotic mixture (Gibco) in a humidified incubator at 37° C. without CO2. The medium was replaced every 3 days. For treatment with retinoic acid (RA), the cells were sub-plated at a density of 0.5-1×10^6 cells/plate using 0.25% trypsin/1 mM EDTA (Gibco, BRL) and allowed to attach overnight. A fresh stock of 4 mM all-trans retinoic acid RA (Sigma, St. Louis, Mo.) was prepared in 100% ethanol under amber lighting. […] The media was changed every 48 h during the differentiation of the cells, which was complete after 7-14 days.
Following fixation, HNSCs were briefly washed 3×5 min in Phosphate buffered saline (PBS), then blocked with 3% normal donkey serum in PBS containing 0.05% Tween 20 (PBS-T) and incubated with goat IgG polyclonal anti-human ChAT (1:500, Chemicon), mouseIgG2b monoclonal anti-human βIII-tubulin (1:1000, Sigma) or rabbit anti-human […] (GFAP) (1:1000, Sigma) overnight at 4° C. The corresponding secondary antibodies (donkey anti-goat, donkey anti-mouse, and donkey anti-rabbit, respectively) conjugated to rhodamine or FITC (Jackson IR Laboratories, Inc.) were added for a 2 hr incubation at RT in the dark. […]

Series [4] has as its system HNSCs. As to the kind of experiment: Co-culture of Lhx8-transfected HNSCs with RA-treated LA-N-2 cells, immunocytochemistry. In kind it is cell-based, human. The method, then: HNSCs culture: Human NSCs were originally purchased from BioWhittaker, Walkersville, Md. These cells have been expanded and passaged in a serum-free culture medium containing bFGF and EGF in our laboratory for over three years (Brannen & Sugaya, 2000). The HNSCs were cultured at a density of 50 spheres in 75 cm^2 culture flasks (Corning, Cambridge, Mass.) in 20 ml of a serum-free supplemented growth medium consisting of HAMS-F12 (Gibco, BRL, Burlington, ON), antibiotic-antimycotic mixture (1:100, Gibco), B27 (1:50, Gibco), human recombinant FGF-2 and EGF (20 ng/ml each, R&D Systems, Minneapolis, Minn.) and heparin (5 μg/ml, Sigma, St. Louis, Mo.) incubated at 37° C. in a 5% CO^2 humidified incubation chamber (Fisher, Pittsburgh, Pa.). To facilitate optimal growth conditions, HNSCs were sectioned into quarters every 2 weeks and fed by replacing 50% of the medium every 4-5 days.
HNSCs were placed in 6-well poly-lysine coated plates and transfected with 4 μg pcDNA 3.1/Lhx8 plasmid using the Neuroporter transfection system (Gene Therapy Systems, see description in Example 1). Upon the insertion of the Lhx8 gene expressible sequence into the directional cloning vector, the expressible sequence was operatively linked to the CMV promoter, and was also positioned upstream (with regard to reading) of a polyadenylation transcription termination site. Lhx8 expression was confirmed after 48 hrs by RT-PCR using primers designed from the gene cDNA sequence; 5′[…]′ 3 (SEQ ID NO: 12, upper primer) and 5′[…]′3 (SEQ ID NO: 13, lower primer). To initiate differentiation, HNSCs were placed in serum-free basal medium, and allowed to differentiate for 10-15 days in culture.
HNSCs (˜5×10^4) transfected with pcDNA 3.1/Lhx8 and non-transfected HNSCs (controls) were transferred into cell culture inserts with an appropriate pore size and suspended in basal media (in the absence of FGF-2 and EGF and without the addition of other extrinsic differentiation factors) over differentiated LA-N-2 cells plated in 6-well plates. […]

Consider “Human Lxh8 gene: Human Lxh8 gene (SEQ ID NO: 6) transfected into HNSCs with the vector and methods of Example 2”, for which, in series [1], the “differentiated cell type (βIII-tubulin, ChAT staining)” value is “positive for βIII-tubulin and ChAT”.
Turning to “Hath1: Hath1 gene amplified from BAC clone RP11-680J17, cloned into mammalian expression vector pcDNAHismax TOPO TA under CMV promoter”, in series [2] (transfected HNSCs after differentiation), the “cell morphology by electron microscopy” value was “typical IEHC morphology; also recorded: distinct hair-like projections”. Further, the “calretinin expression by Western blot” value in series [2] (transfected HNSCs differentiated for 7 days) is recorded as “single band specific to calretinin molecular weight”. In addition, in series [2] (transfected HNSCs differentiated for 7 days without FGF-2, EGF), the “calretinin (hair cell marker) expression by immunocytochemistry” value was “existence of cells expressing calretinin”.
Consider `CC1=C(/C=C/C(C)=C/C=C/C(C)=C/C(=O)O)C(C)(C)CCC1` [RA, all-trans retinoic acid], for which the “Lhx8 and ChAT gene expression by RT-PCR compared with non-treated cells” value in series [3] (RA) is “increased expression”. Besides, the “marker expression in LA-N-2 cells (immunostaining)” value in series [3] (RA-containing media, 7-14 days) is “expressed Lhx8, βIII-tubulin, and ChAT”.

B1: Lhx8: mouse cDNA clone for Lhx8 (SEQ ID NO: 7) inserted into pcDNA 3.1/Zeo mammalian expression vector (nucleic acid, listed as Mus musculus)
DNA: GAATTCGGCACGAGCTTCAGGAAAAGACTTTTCCCCCCACTCCCCCTCCTCTCTGCGAGGTTCCACCCTCTGGAAAACACAACTTTCCCTCTTTTTCTGGAGGGACAGGCCTTAGTGTGGCTGAGAGAGGAAGAACAGTGGGTCAGAGAGTGGTTACGTCACTGTGGCCTTTTTGGAACAAGACACACTGGTGGCATCGCTGTCCTGCCTGTTAGCTTTCCTTGGCCTTTGGGGGCGGAGGAGGGGACACTGCGGACACCCACAGCCTCTGACCCTGCTGGAGCTGGTATGTGACGAGCAGCCCTCGGGCCATGTATTGGAAGAGCGATCAGATGTTTGTGTGTAAGCTGGAGGGAAAGGAGATGCCGGAGCTGGCGGTTCCCCGCGAGATGTGCCCCGGGCTCATGTCGGAGGAGTGCGGGCGGCCTGCAGCTGGCGCCGGGAGGACCCGCAAAGGCTCTGGGGAAGAAGGACTGGTGAATCCCGAGGGAGCCGGGGACGAGGACTCCTGCTCCTCCTCGGGCCCGCTTTCCCCGTCGTCCTCGCCCCAGTCCATGGCCTCGGGTCCGATGTGCCCGCCAGGCAAGTGTGTGTGCAGCAGCTGCGGCCTGGAGATTGTGGACAAATACCTCCTCAAGGTGAATGACTTATGCTGGCATGTCCGCTGTCTCTCCTGCAGTGTCTGCAGAACGTCCCTGGGAAGGCACACGAGCTGCTACATTAAGGATAAAGATATTTTCTGTAAACTCGATTACTTCAGACGGTATGGGACCCGCTGTTCCCGCTGTGGCAGGCACATCCACTCGACTGACTGGGTCCGCAGGGCAAAGGGCAACGTGTATCACCTGGCCTGCTTTGCCTGCTTTTCTTGCAAGAGGCAGCTGTCCACGGGAGAGGAGTTCGCCTTGGTGGAGGAGAAGGTCCTCTGTAGAGTGCACTTTGACTGCATGCTGGACAATCTGAAGAGAGAAGTGGAGAACGGTAATGGGATTAGTGTGGAAGGAGCCCTTCTCACAGAGCAAGACGTCAATCATCCAAAGCCAGCCAAAAGAGCTCGGACCAGCTTCACAGCCGATCAGCTCCAGGTTATGCAAGCACAGTTCGCTCAGGACAACAACCCAGATGCACAGACCCTCCAGAAACTGGCAGAAAGGACAGGCTTAAGCAGACGTGTCATACAGGTGTGGTTTCAGAACTGCAGGGCCCGCCATAAGAAACACGTCAGCCCAAACCATTCTTCCTCGGCCCCCGTCACAGCTGTCCCCTCCTCCAGGCTGTCCCCACCCATCTTGGAAGAAATGGCTTATTCTGCCTACGACCCCCAGGATGACGGGATGCTGACTGCGCACTCATACTTGGATGCTCACCAACAACTCCTGGACTCCAGCCCTTGTTACCCCATCCAATGACCCAGCTGCCAATAAGTCATACCTAATTCCTTCTTTCAGGGATAGAAATGATTGAGGTTATAAACTTGTCATTTTATTATGTATAAAAATA
B1: the “differentiated cell type (βIII-tubulin, ChAT staining)” value in series [4] (co-culture with LA-N-2 cholinergic cells, serum-free, 10-20 days) was “differentiated into mainly βIII-tubulin and ChAT-positive cells; also recorded: differentiated mostly neurons with long extended processes”. In series [4] (one trial, end of trial), the “percentage of transfected cells with characteristics of cholinergic neurons” value is listed as “over 40%”. Besides, the “number of cells differentiating to cells having characteristics of cholinergic cells, versus non-transfected HNSCs” value in series [4] (transfected HNSCs cultured without differentiated LA-N-2 cells) is on record as “no significant difference”.
